Patent US20250302832A1, “PYRAZINE DERIVATIVES AND USES THEREOF” (FOGHORN THERAPEUTICS INC., priority 2022, published 2025)

Experiments:
HiBit-BRM fusion protein = biological target: T1, HiBit-BRM fusion protein (Homo sapiens, UniProt P51531); assay: HiBiT-BRM cell-based degradation assay (Nano-Glo HiBiT lytic detection, 24 h); conditions: HeLa cell line expressing HiBiT-BRM; for DC50: read-out: BRM HiBit Degradation IC50
T1 construct: expressed in transfected cells
Summary of the method: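 Luminescence from LgBiT complementation quantified remaining HiBiT-BRM in stably expressing HeLa cells after 24 h compound exposure (top final dose 30 μM, 3-fold, 10 points, duplicate). Degradation expressed as percent relative to DMSO and a 2 μM reference degrader.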

[1] = biological target: T2, HiBit-BRG1 fusion protein (Homo sapiens, UniProt P51532); assay: HiBiT-BRG1 cell-based degradation assay (Nano-Glo HiBiT lytic detection, 24 h); conditions: HeLa cell line expressing HiBit-BRG1 and LgBit; for Dmax: read-out: BRG1 HiBit Degradation Maximum (%); for DC50: read-out: BRMG1 HiBit Degradation IC50
T2 construct: expressed in transfected cells
T2 sequence (P51532 whole entry, the tested form may be a part): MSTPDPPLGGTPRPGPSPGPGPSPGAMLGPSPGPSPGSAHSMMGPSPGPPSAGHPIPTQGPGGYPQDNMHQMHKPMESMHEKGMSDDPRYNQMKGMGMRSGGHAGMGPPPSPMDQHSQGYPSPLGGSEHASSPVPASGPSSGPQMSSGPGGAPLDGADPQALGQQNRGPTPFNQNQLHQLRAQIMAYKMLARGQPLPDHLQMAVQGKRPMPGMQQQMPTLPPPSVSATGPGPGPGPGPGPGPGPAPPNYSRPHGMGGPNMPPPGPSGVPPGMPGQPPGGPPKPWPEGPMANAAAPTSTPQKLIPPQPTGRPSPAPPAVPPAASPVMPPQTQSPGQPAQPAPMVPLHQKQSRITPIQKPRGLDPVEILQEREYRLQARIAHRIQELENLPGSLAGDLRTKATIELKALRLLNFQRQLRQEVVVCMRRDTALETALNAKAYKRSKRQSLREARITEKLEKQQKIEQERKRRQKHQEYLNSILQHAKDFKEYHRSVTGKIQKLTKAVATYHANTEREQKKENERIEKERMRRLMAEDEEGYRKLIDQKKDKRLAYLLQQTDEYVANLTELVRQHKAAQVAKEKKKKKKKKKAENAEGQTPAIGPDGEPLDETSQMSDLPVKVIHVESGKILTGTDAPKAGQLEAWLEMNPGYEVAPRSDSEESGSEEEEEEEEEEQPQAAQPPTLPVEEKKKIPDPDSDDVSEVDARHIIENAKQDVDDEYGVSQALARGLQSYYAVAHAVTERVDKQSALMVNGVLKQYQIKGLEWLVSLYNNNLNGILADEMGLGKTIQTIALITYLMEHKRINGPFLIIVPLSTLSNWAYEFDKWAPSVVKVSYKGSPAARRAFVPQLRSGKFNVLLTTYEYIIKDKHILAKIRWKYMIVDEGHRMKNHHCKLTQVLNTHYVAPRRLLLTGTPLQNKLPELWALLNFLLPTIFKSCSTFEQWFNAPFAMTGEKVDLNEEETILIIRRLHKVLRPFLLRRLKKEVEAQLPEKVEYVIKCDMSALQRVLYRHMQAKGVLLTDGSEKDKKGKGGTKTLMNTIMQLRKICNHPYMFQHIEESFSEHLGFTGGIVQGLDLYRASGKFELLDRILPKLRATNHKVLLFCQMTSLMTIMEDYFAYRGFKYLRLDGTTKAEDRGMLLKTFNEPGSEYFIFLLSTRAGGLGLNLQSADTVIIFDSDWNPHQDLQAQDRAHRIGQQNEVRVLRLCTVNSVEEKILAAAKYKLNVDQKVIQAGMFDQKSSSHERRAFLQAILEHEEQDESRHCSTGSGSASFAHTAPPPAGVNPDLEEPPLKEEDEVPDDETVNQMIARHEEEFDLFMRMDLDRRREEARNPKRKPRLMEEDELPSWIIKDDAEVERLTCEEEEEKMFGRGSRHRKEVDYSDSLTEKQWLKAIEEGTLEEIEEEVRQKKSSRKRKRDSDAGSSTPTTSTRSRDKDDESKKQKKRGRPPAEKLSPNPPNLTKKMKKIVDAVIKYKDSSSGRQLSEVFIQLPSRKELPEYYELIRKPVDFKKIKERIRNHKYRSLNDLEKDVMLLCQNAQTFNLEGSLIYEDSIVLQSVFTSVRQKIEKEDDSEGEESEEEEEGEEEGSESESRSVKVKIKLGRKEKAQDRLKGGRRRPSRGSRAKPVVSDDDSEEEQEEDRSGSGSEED
Summary of the method: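 Luminescence from HiBiT/LgBiT complementation after lytic detection reagent was read following 24 h compound exposure of HeLa cells stably carrying HiBiT-BRG1 plus LgBiT (5000 cells/well). Signal scaled to % degradation using DMSO-treated cells as 0% and cells given 2 μM known BRM/BRG1 degrader as 100%.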

T1 sequence (P51531 whole entry, the tested form may be a part): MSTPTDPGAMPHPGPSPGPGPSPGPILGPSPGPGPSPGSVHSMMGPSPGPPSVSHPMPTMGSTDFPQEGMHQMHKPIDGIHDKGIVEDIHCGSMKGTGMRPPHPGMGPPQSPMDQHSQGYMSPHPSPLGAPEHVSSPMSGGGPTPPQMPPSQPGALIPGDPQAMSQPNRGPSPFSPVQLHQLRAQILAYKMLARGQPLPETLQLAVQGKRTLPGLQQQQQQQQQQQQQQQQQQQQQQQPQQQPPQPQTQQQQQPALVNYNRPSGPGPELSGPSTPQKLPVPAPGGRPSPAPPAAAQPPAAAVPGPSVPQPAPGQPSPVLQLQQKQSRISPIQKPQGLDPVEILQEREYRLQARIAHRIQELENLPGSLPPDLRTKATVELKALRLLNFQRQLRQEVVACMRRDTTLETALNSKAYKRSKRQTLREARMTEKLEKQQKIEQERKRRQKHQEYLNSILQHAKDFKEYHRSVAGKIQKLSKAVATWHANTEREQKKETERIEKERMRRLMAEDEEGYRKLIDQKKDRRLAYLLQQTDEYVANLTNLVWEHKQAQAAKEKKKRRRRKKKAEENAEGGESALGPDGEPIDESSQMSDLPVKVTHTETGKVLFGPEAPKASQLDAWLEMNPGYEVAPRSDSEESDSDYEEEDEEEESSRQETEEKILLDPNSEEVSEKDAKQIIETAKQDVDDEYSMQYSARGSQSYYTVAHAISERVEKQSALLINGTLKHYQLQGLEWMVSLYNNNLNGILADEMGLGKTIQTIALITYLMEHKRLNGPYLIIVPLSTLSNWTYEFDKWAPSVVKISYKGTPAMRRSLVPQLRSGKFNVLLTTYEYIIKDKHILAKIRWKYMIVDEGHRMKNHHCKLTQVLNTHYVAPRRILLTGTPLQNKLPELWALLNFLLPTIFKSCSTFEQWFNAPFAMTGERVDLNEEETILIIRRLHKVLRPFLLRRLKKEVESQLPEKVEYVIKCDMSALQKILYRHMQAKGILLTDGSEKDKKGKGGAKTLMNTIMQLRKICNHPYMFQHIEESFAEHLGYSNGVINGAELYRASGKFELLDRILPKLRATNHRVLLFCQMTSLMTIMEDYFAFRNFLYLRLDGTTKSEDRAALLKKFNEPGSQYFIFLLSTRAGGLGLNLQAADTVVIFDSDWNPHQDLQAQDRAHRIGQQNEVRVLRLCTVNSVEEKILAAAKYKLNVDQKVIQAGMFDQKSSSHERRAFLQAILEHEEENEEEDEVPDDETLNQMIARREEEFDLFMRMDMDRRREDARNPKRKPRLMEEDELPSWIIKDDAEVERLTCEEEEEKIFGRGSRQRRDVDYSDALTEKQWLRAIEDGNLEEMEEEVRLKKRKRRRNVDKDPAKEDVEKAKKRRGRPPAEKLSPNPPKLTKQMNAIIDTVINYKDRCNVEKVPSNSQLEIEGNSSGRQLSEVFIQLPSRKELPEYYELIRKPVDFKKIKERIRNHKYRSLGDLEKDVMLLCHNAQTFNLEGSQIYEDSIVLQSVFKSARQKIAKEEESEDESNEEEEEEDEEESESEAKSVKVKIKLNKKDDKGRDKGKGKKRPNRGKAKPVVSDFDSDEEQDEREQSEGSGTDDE

| Structure (SMILES) | BRM HiBit Degradation Maximum (%) (HiBit-BRM fusion protein) | DC50 (HiBit-BRM fusion protein) | Dmax [1] | DC50 [1] |
| --- | --- | --- | --- | --- |
| CNC(=O)[C@@H]1C[C@@H](O)CN1C(=O)[C@@H](c1cc(N2CC3(CC(c4cc5nnc(-c6ccccc6O)cc5n4C4CCC4)C3)C2)no1)C(C)C [Compound 61, (2S,4R)-1-((R)-2-(3-(6-(5-cyclobutyl-3-(2-hydroxyphenyl)-5H-pyrrolo[3,2-c]pyridazin-6-yl)-2-azaspiro[3.3]heptan-2-yl)isoxazol-5-yl)-3-methylbutanoyl)-4-hydroxy-N-methylpyrrolidine-2-carboxamide] | A (“A” indicates maximum degradation ≥75%) | > 10 nM | < 50% | – |
| Cc1ncsc1-c1ccc([C@H](C)NC(=O)[C@@H]2C[C@@H](O)CN2C(=O)[C@@H](c2cc(-c3cnc(N4CC5(CC(c6cc7nnc(-c8ccccc8O)cc7n6C6CCC6)C5)C4)nc3)no2)C(C)C)cc1 [Compound 62, (2S,4R)-1-((R)-2-(3-(2-(6-(5-cyclobutyl-3-(2-hydroxyphenyl)-5H-pyrrolo[3,2-c]pyridazin-6-yl)-2-azaspiro[3.3]heptan-2-yl)pyrimidin-5-yl)isoxazol-5-yl)-3-methylbutanoyl)-4-hydroxy-N-((S)-1-(4-(4-methylthiazol-5-yl)phenyl)ethyl)pyrrolidine-2-carboxamide] | A (“A” indicates maximum degradation ≥75%) | < 10 nM | > 50% | > 10 nM |
| CC(C)[C@@H](C(=O)N1C[C@H](O)C[C@H]1C(=O)N[C@@H](C)c1ccc(F)cc1)c1cc(N2CC3(CC(c4cc5nnc(-c6ccccc6O)cc5n4C4CCC4)C3)C2)no1 [Compound 63, (2S,4R)-1-((R)-2-(3-(6-(5-cyclobutyl-3-(2-hydroxyphenyl)-5H-pyrrolo[3,2-c]pyridazin-6-yl)-2-azaspiro[3.3]heptan-2-yl)isoxazol-5-yl)-3-methylbutanoyl)-N-((S)-1-(4-fluorophenyl)ethyl)-4-hydroxypyrrolidine-2-carboxamide] | A (“A” indicates maximum degradation ≥75%) | > 10 nM | < 50% | – |
| Cc1ncsc1-c1ccc([C@H](C)NC(=O)[C@@H]2C[C@@H](O)CN2C(=O)[C@@H](c2cc(-c3cnc(N4CC5(CC(c6cc7nnc(-c8ccccc8O)cc7n6C67CC(C6)C7)C5)C4)nc3)no2)C(C)C)cc1 [Compound 64, (2S,4R)-1-((R)-2-(3-(2-(6-(5-(bicyclo[1.1.1]pentan-1-yl)-3-(2-hydroxyphenyl)-5H-pyrrolo[3,2-c]pyridazin-6-yl)-2-azaspiro[3.3]heptan-2-yl)pyrimidin-5-yl)isoxazol-5-yl)-3-methylbutanoyl)-4-hydroxy-N-((S)-1-(4-(4-methylthiazol-5-yl)phenyl)ethyl)pyrrolidine-2-carboxamide] | A (“A” indicates maximum degradation ≥75%) | < 10 nM | < 50% | – |
| Cc1ncsc1-c1ccc([C@H](C)NC(=O)[C@@H]2C[C@@H](O)CN2C(=O)[C@@H](c2cc(N3CC4(CC(c5cc6nnc(-c7ccccc7O)cc6n5C56CC(C5)C6)C4)C3)no2)C(C)C)cc1 [Compound 65, (2S,4R)-1-((R)-2-(3-(6-(5-(bicyclo[1.1.1]pentan-1-yl)-3-(2-hydroxyphenyl)-5H-pyrrolo[3,2-c]pyridazin-6-yl)-2-azaspiro[3.3]heptan-2-yl)isoxazol-5-yl)-3-methylbutanoyl)-4-hydroxy-N-((S)-1-(4-(4-methylthiazol-5-yl)phenyl)ethyl)pyrrolidine-2-carboxamide] | A (“A” indicates maximum degradation ≥75%) | < 10 nM | < 50% | – |
| Cc1ncsc1-c1ccc([C@H](C)NC(=O)[C@@H]2C[C@@H](O)CN2C(=O)[C@@H](c2cc(N3CC4(CC(c5cc6nnc(-c7ccccc7O)cc6n5C5(C)CC5)C4)C3)no2)C(C)C)cc1 [Compound 66, (2S,4R)-4-hydroxy-1-((R)-2-(3-(6-(3-(2-hydroxyphenyl)-5-(1-methylcyclopropyl)-5H-pyrrolo[3,2-c]pyridazin-6-yl)-2-azaspiro[3.3]heptan-2-yl)isoxazol-5-yl)-3-methylbutanoyl)-N-((S)-1-(4-(4-methylthiazol-5-yl)phenyl)ethyl)pyrrolidine-2-carboxamide] | A (“A” indicates maximum degradation ≥75%) | < 10 nM | > 50% | > 10 nM |
| Cc1ncsc1-c1ccc([C@H](C)NC(=O)[C@@H]2C[C@@H](O)CN2C(=O)[C@@H](c2cc(N3CC4(CC(c5cc6nnc(-c7ccccc7O)cc6n5C)C4)C3)no2)C(C)C)cc1 [Compound 67, (2S,4R)-4-hydroxy-1-((R)-2-(3-(6-(3-(2-hydroxyphenyl)-5-methyl-5H-pyrrolo[3,2-c]pyridazin-6-yl)-2-azaspiro[3.3]heptan-2-yl)isoxazol-5-yl)-3-methylbutanoyl)-N-((S)-1-(4-(4-methylthiazol-5-yl)phenyl)ethyl)pyrrolidine-2-carboxamide] | A (“A” indicates maximum degradation ≥75%) | < 10 nM | > 50% | > 10 nM |
| Cc1ncsc1-c1ccc([C@H](C)NC(=O)[C@@H]2C[C@@H](O)CN2C(=O)[C@@H](c2cc(N3CC4(CC(c5cc6nnc(-c7ccccc7O)cc6n5C5(CF)CC5)C4)C3)no2)C(C)C)cc1 [Compound 68, (2S,4R)-1-((R)-2-(3-(6-(5-(1-(fluoromethyl)cyclopropyl)-3-(2-hydroxyphenyl)-5H-pyrrolo[3,2-c]pyridazin-6-yl)-2-azaspiro[3.3]heptan-2-yl)isoxazol-5-yl)-3-methylbutanoyl)-4-hydroxy-N-((S)-1-(4-(4-methylthiazol-5-yl)phenyl)ethyl)pyrrolidine-2-carboxamide] | A (“A” indicates maximum degradation ≥75%) | < 10 nM | < 50% | – |
| Cc1ncsc1-c1ccc([C@H](C)NC(=O)[C@@H]2C[C@@H](O)CN2C(=O)[C@@H](c2cc(-c3cnc(N4CC[C@@H](c5cc6nnc(-c7cccc(Cl)c7O)cc6n5C5CC5)C4)nc3)no2)C(C)C)cc1 [Compound 69, (2S,4R)-1-((R)-2-(3-(2-((R)-3-(3-(3-chloro-2-hydroxyphenyl)-5-cyclopropyl-5H-pyrrolo[3,2-c]pyridazin-6-yl)pyrrolidin-1-yl)pyrimidin-5-yl)isoxazol-5-yl)-3-methylbutanoyl)-4-hydroxy-N-((S)-1-(4-(4-methylthiazol-5-yl)phenyl)ethyl)pyrrolidine-2-carboxamide] | A (“A” indicates maximum degradation ≥75%) | < 10 nM | < 50% | – |
| Cc1ncsc1-c1ccc([C@H](C)NC(=O)[C@@H]2C[C@@H](O)CN2C(=O)[C@@H](c2cc(-c3cnc(N4CC[C@@H](c5cc6nnc(-c7cc(F)cc(Cl)c7O)cc6n5C5CC5)C4)nc3)no2)C(C)C)cc1 [Compound 70, (2S,4R)-1-((R)-2-(3-(2-((R)-3-(3-(3-chloro-5-fluoro-2-hydroxyphenyl)-5-cyclopropyl-5H-pyrrolo[3,2-c]pyridazin-6-yl)pyrrolidin-1-yl)pyrimidin-5-yl)isoxazol-5-yl)-3-methylbutanoyl)-4-hydroxy-N-((S)-1-(4-(4-methylthiazol-5-yl)phenyl)ethyl)pyrrolidine-2-carboxamide] | A (“A” indicates maximum degradation ≥75%) | < 10 nM | < 50% | – |
| Cc1ncsc1-c1ccc([C@H](C)NC(=O)[C@@H]2C[C@@H](O)CN2C(=O)[C@H](C(C)C)n2cc(-c3cnc(N4CC[C@@H](c5cc6nnc(-c7ccccc7O)cc6n5C5CC5)C4)nc3)nn2)cc1 [Compound 71, (2S,4R)-1-((S)-2-(4-(2-((R)-3-(5-cyclopropyl-3-(2-hydroxyphenyl)-5H-pyrrolo[3,2-c]pyridazin-6-yl)pyrrolidin-1-yl)pyrimidin-5-yl)-1H-1,2,3-triazol-1-yl)-3-methylbutanoyl)-4-hydroxy-N-((S)-1-(4-(4-methylthiazol-5-yl)phenyl)ethyl)pyrrolidine-2-carboxamide] | A (“A” indicates maximum degradation ≥75%) | < 10 nM | > 75% | < 10 nM |
| Cc1ncsc1-c1ccc([C@H](C)NC(=O)[C@@H]2C[C@@H](O)CN2C(=O)[C@@H](C(C)C)n2cc(-c3cnc(N4CC[C@@H](c5cc6nnc(-c7ccccc7O)cc6n5C5CC5)C4)nc3)nn2)cc1 [Compound 72, (2S,4R)-1-((R)-2-(4-(2-((R)-3-(5-cyclopropyl-3-(2-hydroxyphenyl)-5H-pyrrolo[3,2-c]pyridazin-6-yl)pyrrolidin-1-yl)pyrimidin-5-yl)-1H-1,2,3-triazol-1-yl)-3-methylbutanoyl)-4-hydroxy-N-((S)-1-(4-(4-methylthiazol-5-yl)phenyl)ethyl)pyrrolidine-2-carboxamide] | A (“A” indicates maximum degradation ≥75%) | < 10 nM | < 50% | – |
| Cc1ncsc1-c1ccc([C@H](C)NC(=O)[C@@H]2C[C@@H](O)CN2C(=O)[C@@H](c2cc(-c3cnc(N4CC[C@H](c5cc6nnc(-c7cc(F)cc(Cl)c7O)cc6n5C5CC5)C4)nc3)no2)C(C)C)cc1 [Compound 73, (2S,4R)-1-((R)-2-(3-(2-((S)-3-(3-(3-chloro-5-fluoro-2-hydroxyphenyl)-5-cyclopropyl-5H-pyrrolo[3,2-c]pyridazin-6-yl)pyrrolidin-1-yl)pyrimidin-5-yl)isoxazol-5-yl)-3-methylbutanoyl)-4-hydroxy-N-((S)-1-(4-(4-methylthiazol-5-yl)phenyl)ethyl)pyrrolidine-2-carboxamide] | B (“B” indicates maximum degradation ≥50%) | > 10 nM | > 50% | > 10 nM |
